PubChem BioAssay (NCI)
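Step 1: Grow cells in 96-well plates. Step 2: Expose to compound for 48 hours at 5 concentrations. Step 3: Interpolate endpoints linearly; if unreached, use highest concentration. Abbreviation: GI50, concentration required for 50% inhibition of growth. TGI: concentration producing complete growth inhibition.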

Tests used:
Test in all cases: inhibition of tumour cell growth, NCI panel, 48 h
SF-539 CNS = tested on: SF-539 CNS
CAKI-1 renal = tested on: CAKI-1 renal
TK-10 renal = tested on: TK-10 renal
A498 renal = tested on: A498 renal
HCT-116 colon = tested on: HCT-116 colon
MALME-3M melanoma = tested on: MALME-3M melanoma
SR leukemia = tested on: SR leukemia
A549 NSCLC = tested on: A549 NSCLC
UO-31 renal = tested on: UO-31 renal
OVCAR-5 ovarian = tested on: OVCAR-5 ovarian
SF-295 CNS = tested on: SF-295 CNS
SW-620 colon = tested on: SW-620 colon
ACHN renal = tested on: ACHN renal
DU-145 prostate = tested on: DU-145 prostate
PC-3 prostate = tested on: PC-3 prostate
BT-549 breast = tested on: BT-549 breast
SK-OV-3 ovarian = tested on: SK-OV-3 ovarian
T-47D breast = tested on: T-47D breast
SNB-75 CNS = tested on: SNB-75 CNS
SK-MEL-2 melanoma = tested on: SK-MEL-2 melanoma
LOX IMVI melanoma = tested on: LOX IMVI melanoma
SNB-19 CNS = tested on: SNB-19 CNS
NCI-H23 lung = tested on: NCI-H23 lung
NCI/ADR-RES ovarian = tested on: NCI/ADR-RES ovarian
KM12 colon = tested on: KM12 colon
MDA-MB-231 breast = tested on: MDA-MB-231 breast
NCI-H460 lung = tested on: NCI-H460 lung
UACC-257 melanoma = tested on: UACC-257 melanoma
MDA-MB-435 = tested on: MDA-MB-435
K-562 leukemia = tested on: K-562 leukemia
COLO 205 colon = tested on: COLO 205 colon
SF-268 CNS = tested on: SF-268 CNS
SK-MEL-5 melanoma = tested on: SK-MEL-5 melanoma
SK-MEL-28 melanoma = tested on: SK-MEL-28 melanoma
M14 melanoma = tested on: M14 melanoma
HCC-2998 colon = tested on: HCC-2998 colon
HOP-92 NSCLC = tested on: HOP-92 NSCLC
OVCAR-4 ovarian = tested on: OVCAR-4 ovarian
MCF7 breast = tested on: MCF7 breast
U251 CNS = tested on: U251 CNS
HT29 colon = tested on: HT29 colon
CCRF-CEM leukemia = tested on: CCRF-CEM leukemia
NCI-H522 lung = tested on: NCI-H522 lung
SN12C renal = tested on: SN12C renal
HOP-62 NSCLC = tested on: HOP-62 NSCLC
EKVX NSCLC = tested on: EKVX NSCLC
IGROV1 ovarian = tested on: IGROV1 ovarian
RXF 393 renal = tested on: RXF 393 renal
RPMI-8226 leukemia = tested on: RPMI-8226 leukemia
786-0 renal = tested on: 786-0 renal
NCI-H226 lung = tested on: NCI-H226 lung
HS 578T breast = tested on: HS 578T breast
MOLT-4 leukemia = tested on: MOLT-4 leukemia
HCT-15 colon = tested on: HCT-15 colon
OVCAR-8 ovarian = tested on: OVCAR-8 ovarian
UACC-62 melanoma = tested on: UACC-62 melanoma
OVCAR-3 ovarian = tested on: OVCAR-3 ovarian
HL-60(TB) leukemia = tested on: HL-60(TB) leukemia

With `COc1ccc2c(-c3ccc(OCCN(C)C)cc3)c(Oc3ccccc3)c(=O)oc2c1` the TGI (SF-539 CNS) was 16.7 µM, the TGI (CAKI-1 renal) was 25.1 µM and the TGI (TK-10 renal) was 23 µM. The TGI (A498 renal) was 26.8 µM, the TGI (HCT-116 colon) was 8.79 µM and the TGI (MALME-3M melanoma) was 11.6 µM. It also gave a TGI (SR leukemia) of 5.17 µM, a TGI (A549 NSCLC) of 10.4 µM and a TGI (UO-31 renal) of 13.9 µM. The TGI (OVCAR-5 ovarian) was 28.2 µM, the TGI (SF-295 CNS) was 8.91 µM and the TGI (SW-620 colon) was 16.7 µM. For the same compound, the TGI (ACHN renal) was 22 µM, the TGI (DU-145 prostate) was 27.6 µM and the TGI (PC-3 prostate) was 18.9 µM. The TGI (BT-549 breast) was 24.4 µM, the TGI (SK-OV-3 ovarian) was 18.1 µM and the TGI (T-47D breast) was over 59.9 µM. The TGI (SNB-75 CNS) was 21.6 µM, the TGI (SK-MEL-2 melanoma) was 13.9 µM and the TGI (LOX IMVI melanoma) was 26.6 µM. It also gave a TGI (SNB-19 CNS) of 17.2 µM, a TGI (NCI-H23 lung) of 28.8 µM and a TGI (NCI/ADR-RES ovarian) of 20.4 µM. The TGI (KM12 colon) was over 39.4 µM, the TGI (MDA-MB-231 breast) was 10.2 µM and the TGI (NCI-H460 lung) was 22.2 µM. For the same compound, the TGI (UACC-257 melanoma) was 4.52 µM, the TGI (MDA-MB-435) was 7.12 µM and the TGI (K-562 leukemia) was 12.4 µM. It also gave a TGI (COLO 205 colon) of 9.59 µM, a TGI (SF-268 CNS) of 18.9 µM and a TGI (SK-MEL-5 melanoma) of 5.89 µM. The TGI (SK-MEL-28 melanoma) was 5.53 µM, the TGI (M14 melanoma) was 3.08 µM and the TGI (HCC-2998 colon) was 10.3 µM. The TGI (HOP-92 NSCLC) was 25.8 µM, the TGI (OVCAR-4 ovarian) was 40.7 µM and the TGI (MCF7 breast) was 15.3 µM. The TGI (U251 CNS) was 8.9 µM, the TGI (HT29 colon) was 22.4 µM and the TGI (CCRF-CEM leukemia) was 10.1 µM. It also gave a TGI (NCI-H522 lung) of 11.3 µM, a TGI (SN12C renal) of 18.7 µM and a TGI (HOP-62 NSCLC) of 27.3 µM. For the same compound, the TGI (EKVX NSCLC) was 23.5 µM, the TGI (IGROV1 ovarian) was 19.1 µM and the TGI (RXF 393 renal) was 20.5 µM. It also gave a TGI (RPMI-8226 leukemia) of 15.5 µM, a TGI (786-0 renal) of 8.68 µM and a TGI (NCI-H226 lung) of 40 µM. For the same compound, the TGI (HS 578T breast) was 21.5 µM, the TGI (MOLT-4 leukemia) was 11.8 µM and the TGI (HCT-15 colon) was 14.6 µM. For the same compound, the TGI (OVCAR-8 ovarian) was 26.2 µM, the TGI (UACC-62 melanoma) was 9.82 µM and the TGI (OVCAR-3 ovarian) was 21.2 µM.
With `O=C1c2ccccc2C(=O)c2c1ccc(C(Br)Br)c2Cl` the GI50 (SF-539 CNS) was 1.99 µM, the TGI (SF-539 CNS) was 4.61 µM and the GI50 (TK-10 renal) was 3.91 µM. It also gave a TGI (TK-10 renal) of 12.3 µM, a GI50 (A498 renal) of 17 µM and a TGI (A498 renal) of 31.9 µM. It also gave a GI50 (HCT-116 colon) of 1.58 µM, a TGI (HCT-116 colon) of 3.02 µM and a GI50 (MALME-3M melanoma) of 1.69 µM. It also gave a TGI (MALME-3M melanoma) of 3.38 µM, a GI50 (SR leukemia) of 1.83 µM and a TGI (SR leukemia) of 4.33 µM. The GI50 (A549 NSCLC) was 16.7 µM, the TGI (A549 NSCLC) was 32.3 µM and the GI50 (UO-31 renal) was 1.73 µM. The TGI (UO-31 renal) was 3.78 µM, the GI50 (OVCAR-5 ovarian) was 11.1 µM and the TGI (OVCAR-5 ovarian) was 23.9 µM. It also gave a GI50 (SF-295 CNS) of 11.7 µM, a TGI (SF-295 CNS) of 23.9 µM and a GI50 (SW-620 colon) of 1.78 µM. For the same compound, the TGI (SW-620 colon) was 3.4 µM, the GI50 (ACHN renal) was 1.57 µM and the TGI (ACHN renal) was 3.02 µM. It also gave a GI50 (DU-145 prostate) of 2.07 µM, a TGI (DU-145 prostate) of 4.7 µM and a GI50 (PC-3 prostate) of 2.38 µM. The TGI (PC-3 prostate) was 6.28 µM, the GI50 (BT-549 breast) was 1.79 µM and the TGI (BT-549 breast) was 4.61 µM. The GI50 (SK-OV-3 ovarian) was 15.1 µM, the TGI (SK-OV-3 ovarian) was 30 µM and the GI50 (T-47D breast) was 1.76 µM. It also gave a TGI (T-47D breast) of 5.79 µM, a GI50 (SNB-75 CNS) of 13.7 µM and a TGI (SNB-75 CNS) of 26.9 µM. The GI50 (SK-MEL-2 melanoma) was 3.27 µM, the TGI (SK-MEL-2 melanoma) was 12.4 µM and the GI50 (LOX IMVI melanoma) was 1.59 µM. For the same compound, the TGI (LOX IMVI melanoma) was 3.08 µM, the GI50 (SNB-19 CNS) was 3.55 µM and the TGI (SNB-19 CNS) was 13.5 µM. The GI50 (NCI-H23 lung) was 1.91 µM, the TGI (NCI-H23 lung) was 4.92 µM and the GI50 (NCI/ADR-RES ovarian) was 3.1 µM. For the same compound, the TGI (NCI/ADR-RES ovarian) was 14.9 µM, the GI50 (KM12 colon) was 2.04 µM and the TGI (KM12 colon) was 5.28 µM. For the same compound, the GI50 (MDA-MB-231 breast) was 1.87 µM, the TGI (MDA-MB-231 breast) was 3.7 µM and the GI50 (NCI-H460 lung) was 2.01 µM. For the same compound, the TGI (NCI-H460 lung) was 3.85 µM, the GI50 (UACC-257 melanoma) was 12.1 µM and the TGI (UACC-257 melanoma) was 24.8 µM. The GI50 (MDA-MB-435) was 3.03 µM, the TGI (MDA-MB-435) was 10.9 µM and the GI50 (HL-60(TB) leukemia) was 3.66 µM. It also gave a TGI (HL-60(TB) leukemia) of 11.2 µM, a GI50 (SF-268 CNS) of 1.68 µM and a TGI (SF-268 CNS) of 3.45 µM. The GI50 (SK-MEL-5 melanoma) was 5.84 µM, the TGI (SK-MEL-5 melanoma) was 18.1 µM and the GI50 (SK-MEL-28 melanoma) was 11.9 µM. The TGI (SK-MEL-28 melanoma) was 24.4 µM, the GI50 (M14 melanoma) was 2.67 µM and the TGI (M14 melanoma) was 9.06 µM. For the same compound, the GI50 (HCC-2998 colon) was 3.42 µM, the TGI (HCC-2998 colon) was 12.1 µM and the GI50 (HOP-92 NSCLC) was 1.67 µM. The TGI (HOP-92 NSCLC) was 3.35 µM, the GI50 (OVCAR-4 ovarian) was 1.78 µM and the TGI (OVCAR-4 ovarian) was 4.3 µM. It also gave a GI50 (MCF7 breast) of 1.69 µM, a TGI (MCF7 breast) of 3.86 µM and a GI50 (U251 CNS) of 1.75 µM. For the same compound, the TGI (U251 CNS) was 3.24 µM, the GI50 (HT29 colon) was 1.87 µM and the TGI (HT29 colon) was 3.54 µM. The GI50 (CCRF-CEM leukemia) was 2.1 µM, the TGI (CCRF-CEM leukemia) was 8.21 µM and the GI50 (NCI-H522 lung) was 1.6 µM. The TGI (NCI-H522 lung) was 3.3 µM, the GI50 (SN12C renal) was 1.92 µM and the TGI (SN12C renal) was 3.82 µM. It also gave a GI50 (HOP-62 NSCLC) of 2.1 µM, a TGI (HOP-62 NSCLC) of 4.67 µM and a GI50 (EKVX NSCLC) of 4.42 µM. For the same compound, the TGI (EKVX NSCLC) was 17.8 µM, the GI50 (IGROV1 ovarian) was 1.7 µM and the TGI (IGROV1 ovarian) was 3.89 µM. It also gave a GI50 (RXF 393 renal) of 2 µM, a TGI (RXF 393 renal) of 4.79 µM and a GI50 (786-0 renal) of 1.71 µM. The TGI (786-0 renal) was 3.25 µM, the GI50 (NCI-H226 lung) was 4.49 µM and the TGI (NCI-H226 lung) was 24.4 µM. For the same compound, the GI50 (HS 578T breast) was 2.81 µM, the TGI (HS 578T breast) was 9.11 µM and the GI50 (MOLT-4 leukemia) was 2.81 µM. It also gave a TGI (MOLT-4 leukemia) of 9.32 µM, a GI50 (HCT-15 colon) of 1.69 µM and a TGI (HCT-15 colon) of 3.4 µM. For the same compound, the GI50 (OVCAR-8 ovarian) was 3.16 µM, the TGI (OVCAR-8 ovarian) was 8.87 µM and the GI50 (UACC-62 melanoma) was 4.56 µM. For the same compound, the TGI (UACC-62 melanoma) was 16.6 µM, the GI50 (OVCAR-3 ovarian) was 1.66 µM and the TGI (OVCAR-3 ovarian) was 3.12 µM.
